Patent US9745279B2, “Sirtuin activator” (TOKIWA PHYTOCHEMICAL CO., LTD., priority 2011, dated 2017)

Experiments:
[1] = system: sirtuin; details: reported in Non-Patent Documents 4 and 5; cited from earlier work
[2] = molecular target: T1, SIRT1 enzyme (Homo sapiens, UniProt Q96EB6); test: SIRT1 Activity Assay/Drug Discovery kit, Fluorescent: sirtuin activity acceleration by black ginger extracts and fractions (Example 3); type: biochemical; details: subject sample solution 500 μg/mL, 10 μL/well; FIGS. 1 and 2
T1 construct: purchased BIOMOL International (via COSMO BIO CO., LTD.) AK-555 (kit); SE-239 (enzyme)
T1 sequence (Q96EB6 1-747): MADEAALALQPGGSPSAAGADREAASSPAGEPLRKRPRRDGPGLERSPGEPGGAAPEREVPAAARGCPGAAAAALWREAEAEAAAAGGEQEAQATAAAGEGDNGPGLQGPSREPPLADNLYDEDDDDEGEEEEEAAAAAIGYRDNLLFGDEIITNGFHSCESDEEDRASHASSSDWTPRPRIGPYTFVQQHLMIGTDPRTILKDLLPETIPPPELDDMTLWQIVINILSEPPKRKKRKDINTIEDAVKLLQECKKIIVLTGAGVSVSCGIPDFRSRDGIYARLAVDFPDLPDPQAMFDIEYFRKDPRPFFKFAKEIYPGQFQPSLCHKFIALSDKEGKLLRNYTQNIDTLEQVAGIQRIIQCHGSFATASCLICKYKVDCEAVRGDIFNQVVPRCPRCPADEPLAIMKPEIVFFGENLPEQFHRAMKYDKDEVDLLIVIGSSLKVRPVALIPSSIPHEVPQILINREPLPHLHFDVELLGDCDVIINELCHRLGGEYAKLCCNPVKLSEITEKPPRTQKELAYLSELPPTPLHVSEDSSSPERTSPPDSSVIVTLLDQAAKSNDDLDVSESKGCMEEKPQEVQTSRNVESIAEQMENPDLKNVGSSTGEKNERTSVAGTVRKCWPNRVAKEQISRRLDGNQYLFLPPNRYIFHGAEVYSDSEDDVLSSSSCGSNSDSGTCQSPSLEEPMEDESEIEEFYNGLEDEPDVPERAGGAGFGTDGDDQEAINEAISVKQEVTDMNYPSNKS
Method: The sirtuin activity was measured according to the attached protocol using SIRT1 Activity Assay/Drug Discovery kit, Fluorescent (AK-555, BIOMOL International, Plymouth Meeting, Pa., USA [COSMO BIO CO., LTD., Tokyo]).
All measurement reagents (preserved at −80° C.) were stationed on ice until use to melt the SIRT1 enzyme (SE-239) and 5× Developer II (KI-176) moderately. SIRT1 enzyme was diluted to 0.2 U/μL with an assay buffer (KI-286). Resveratrol and extracts and fragments of the black ginger obtained above were used as subject samples. Solutions of 500 μg/mL were prepared using purified water for hot water extracts and the water phase fraction, and using DMSO for other samples. A solution of 10 μL/well was used for each obtained subject sample. To the control was added either DMSO or purified water instead of a subject sample. The substrate Fluor de Lys-SIRT1 (KI-177; 5 mM) plus a coenzyme NAD^+ (KI-282; 50 mM) were diluted with an assay buffer (KI-286) to obtain a concentration that is 3.33 folds that of the final usage concentration, and used in an amount of 15 μL/well. […] Then, a reaction stop solution Developer II/2 mM nicotinamide was added at 50 μL/well, and the fluorescent probe generated from Developer II was measured (excited wave length 380 nm, fluorescent wave length 460 nm) by a fluorescent plate reader (Tecan Co., Infinite 200) within 60 minutes after the reaction stopped.

[3] = molecular target: T1, SIRT1 enzyme; test: SIRT1 fluorescent activity assay: sirtuin activity acceleration by polyalkoxyflavonoid compounds (Example 6); type: biochemical; details: FIG. 8
Method: The sirtuin activity was measured according to a protocol similar to that of Example 3.
All measurement reagents (preserved at −80° C.) were stationed on ice until use to melt the SIRT1 enzyme (SE-239) and 5× Developer II (KI-176) moderately. SIRT1 enzyme was diluted to 0.2 U/μL with an assay buffer (KI-286). Resveratrol, Compounds 1 to 5 and nobiletin (Funakoshi Co.) were used as subject samples. […] To the control was added DMSO instead of a subject sample. The substrate Fluor de Lys-SIRT1 (KI-177; 5 mM) plus a coenzyme NAD^+ (KI-282; 50 mM) was diluted with an assay buffer (KI-286) to obtain a concentration that is 3.33 folds that of the final use concentration, and used in an amount of 15 μL/well. A subject sample solution (10 μL/well), SIRT1 enzyme solution (0.2 U/μL, 5 μL/well) and an assay buffer (10 μL/well) were added to the measurement microplate and pre-incubated at 37° C. for 5 minutes. The substrate solution that was heated preliminary at 37° C. was added at 25 μL/well, then, further incubated at 37° C. for 10 minutes. Then, a reaction stop solution Developer II/2 mM nicotinamide was added at 50 μL/well, and the fluorescent probe generated from Developer II was measured (excited wave length 360 nm, fluorescent wave length 460 nm) by a fluorescent plate reader (Tecan Co., Infinite 200) within 60 minutes after the reaction stopped.

Structure (SMILES)	sirtuin activation activity [1]	sirtuin activity by comparison with the control value [2]	SIRT1 activity ([3]; concentrations of 100 μg/mL and 20 μg/mL)	SIRT1 activity ([3]; low concentrations of 10 μg/mL and 2 μg/mL)
O=C(/C=C/c1ccc(O)c(O)c1)c1ccc(O)cc1O [butein, 3,4,2′,4′-tetrahydroxychalcone]	weaker than resveratrol	–	–	–
O=c1c(O)c(-c2ccc(O)c(O)c2)oc2cc(O)ccc12 [fisetin, 3,7,3′,4′-tetrahydroxyflavone]	weaker than resveratrol	–	–	–
O=C(/C=C/c1ccc(O)cc1)c1ccc(O)cc1O [isoliquiritigenin, 4,2′,4′-trihydroxychalcone]	weaker than resveratrol	–	–	–
O=c1c(O)c(-c2ccc(O)c(O)c2)oc2cc(O)cc(O)c12 [quercetin, 3,5,7,3′,4′-pentahydroxyflavone]	weaker than resveratrol	–	–	–
Oc1ccc(C=Cc2cc(O)cc(O)c2)cc1 [resveratrol]	effective in activating sirtuin	enhanced	accelerated	almost no activity was observed
